In US7700584B2 (Hangzhou Minsheng Pharmaceuticals Co., Ltd., priority 2004, dated 2010):

What was measured:
Assay type in all cases: cell-based
Conditions in all cases: 50 μg/ml
[1] = tested on: Bel-7402 human hepatic carcinoma; experiment: In vitro inhibition rate to tumor cells (MTT), Bel-7402
Procedure: (§1) (1) Single cell suspension was seeded into 96-well plates (×3) (the cells was diluted in the PRMI-1640 minimum medium to 3×10^4 cells/ml, […] diluted cells/well). […] The experiments were performed in quadruplicate.
(§2) (2) The medium was removed. Solutions of the anti-tumor agents (15 compounds) were prepared in a freshly prepared medium at the concentrations indicated in the following Table. […] of the solution was added into each well. Incubation was continued for 48 hours.
(§3) (3) […] of 2 mg/ml MTT was added into each well, and incubated for 4 hours.
(§4) (4) The medium was removed from the well. The microplates were swiftly turned down to throw-off the medium. […] DMSO was added into each well, and vortexed at room temperature for 10 minutes.
(§5) (5) OD value (λ=570 nm) was measured with an Enzyme-Linked Detector.
(§6) (6) The inhibition rates (IR) of cell growth were respectively calculated based on the following equation: IR(%)=[1−(average OD of the experimental group/average OD of the control group)]×100%

[2] = tested on: A-549 human lung adenocarcinoma; experiment: In vitro inhibition rate to tumor cells (MTT), A-549
Procedure: as §1, §2, §3, §4, §5, §6

[3] = tested on: HL-60 human promyelocytic leukemia; experiment: In vitro inhibition rate to tumor cells (MTT), HL-60
Procedure: as §1, §2, §3, §4, §5, §6

[4] = tested on: U-937 human histocytic lymphoma; experiment: In vitro inhibition rate to tumor cells (MTT), U-937
Procedure: as §1, §2, §3, §4, §5, §6

[5] = tested on: SMMC-7721 human hepatic carcinoma; experiment: In vitro inhibition rate to tumor cells (MTT), SMMC-7721
Procedure: as §1, §2, §3, §4, §5, §6

[6] = tested on: Hela human cervical carcinoma; experiment: In vitro inhibition rate to tumor cells (MTT), Hela
Procedure: as §1, §2, §3, §4, §5, §6

[7] = tested on: MCF-7 human mammary adenocarcinoma; experiment: In vitro inhibition rate to tumor cells (MTT), MCF-7
Procedure: as §1, §2, §3, §4, §5, §6

[8] = tested on: LLC mouse Lewis lung carcinoma; experiment: In vitro inhibition rate to tumor cells (MTT), LLC
Procedure: as §1, §2, §3, §4, §5, §6

Row | SMILES | inhibition rate, Results (%) Bel-7402 ([1]; Table 1) [%] | inhibition rate, Results (%) Bel-7402 ([1]; Table 2 (repeated screening)) [%] | inhibition rate, Results (%) A-549 ([2]; Table 1) [%] | inhibition rate, Results (%) A-549 ([2]; Table 2 (repeated screening)) [%] | inhibition rate, Results (%) HL-60 ([3]; Table 1) [%] | inhibition rate, Results (%) HL-60 ([3]; Table 2 (repeated screening)) [%] | inhibition rate, Results (%) U-937 ([4]; Table 1) [%] | inhibition rate, Results (%) U-937 ([4]; Table 2 (repeated screening)) [%] | inhibition rate, Results (%) SMMC-7721 ([5]; Table 1) [%] | inhibition rate, Results (%) SMMC-7721 ([5]; Table 2 (repeated screening)) [%] | inhibition rate, Results (%) Hela ([6]; Table 1) [%] | inhibition rate, Results (%) Hela ([6]; Table 2 (repeated screening)) [%] | inhibition rate, Results (%) MCF-7 ([7]; Table 1) [%] | inhibition rate, Results (%) MCF-7 ([7]; Table 2 (repeated screening)) [%] | inhibition rate, Results (%) LLC ([8]; Table 1) [%] | inhibition rate, Results (%) LLC ([8]; Table 2 (repeated screening)) [%]
1 | CC(C)C1CC23OC1(O)CC(Br)(CBr)C2CCC3C (centres unmarked) [Compound 30, Curcumol dibromide] | 12.40 | 9.84 | 4.36 | 4.01 | 13.20 | 4.12 | 13.25 | 13.10 | 1.03 | 4.56 | 53.87 | 56.89 | 36.15 | 30.56 | −1.83 | −4.65
2 | CC(C)C1CC23OC1(O)CC(=CO)C2CCC3C (centres unmarked) [Compound 18, Curcumol monohydroxy compound] | 13.58 | 11.23 | −2.24 | −0.32 | 4.26 | 7.32 | 70.30 | 69.23 | 13.39 | 0.69 | 60.32 | 65.03 | 57.89 | 54.32 | 4.18 | 0.22
3 | COC12CC(=CBr)C3CCC(C)C3(CC1C(C)C)O2 (centres unmarked) [Compound 26, Curcumol methyl ether bromide] | 3.45 | −3.45 | −3.24 | −3.12 | −0.23 | −0.23 | 55.32 | 54.23 | 0.97 | −0.97 | 51.00 | 56.55 | 43.21 | 41.21 | 11.77 | −11.77
4 | CC(C)C1CC23OC1(O)CC(C)(Br)C2CCC3C (centres unmarked) [Compound 34, Curcumol monobromide without double bond] | 1.11 | 0.59 | 2.31 | 9.23 | 2.96 | 3.14 | 35.23 | 23.56 | −5.25 | 0.95 | 50.64 | 51.89 | 1.23 | 4.56 | −18.52 | −11.22
5 | CC(C)C1CC23OC1(O)CC(CN1CCNCC1)(N1CCNCC1)C2CCC3C (centres unmarked) [Compound 41, Curcumol bispiperazine] | 16.78 | 1.23 | −2.50 | −7.89 | 6.78 | 1.86 | 8.65 | −1.02 | 4.42 | 3.12 | 50.32 | 51.23 | 36.45 | 31.28 | 30.96 | 23.65
6 | CCCCNC=C1CC2(OC)OC3(CC2C(C)C)C(C)CCC13.Cl (centres unmarked) [Compound 28, Curcumol methyl ether n-butyl amine hydrochloride] | −2.24 | −0.45 | 1.23 | 2.31 | 2.98 | 4.32 | 59.32 | 51.23 | −3.78 | −1.02 | 58.75 | 60.45 | 32.15 | 19.98 | 0.24 | 1.23
7 | CCCCNC=C1CC2(OC)OC3(CC2C(C)C)C(C)CCC13 (centres unmarked) [Compound 27, Curcumol methyl ether n-butyl amine] | 4.65 | 2.31 | 15.01 | 5.23 | 3.19 | 5.969 | 52.98 | 50.98 | 25.94 | 20.36 | 62.31 | 60.21 | 23.78 | 14.36 | −10.89 | −10.00
8 | CCOC12CC(=CO[N+](=O)[O-])C3CCC(C)C3(CC1C(C)C)O2 (centres unmarked) [Compound 29, Curcumol ethyl ether nitrate] | 2.51 | 3.21 | 3.89 | 1.23 | 42.12 | 42.79 | 25.32 | 12.32 | 4.26 | 5.68 | 56.98 | 50.17 | 37.85 | 30.12 | −10.12 | −1.95
9 | CCCCNC1(C)CC2(OC)OC3(CC2C(C)C)C(C)CCC13 (centres unmarked) [Compound 45, Curcumol methyl ether n-butyl amine without double bond] | 3.01 | 5.02 | 2.10 | 0.32 | 6.14 | 1.23 | 32.19 | 12.32 | −10.73 | −11.23 | 59.45 | 53.12 | 26.78 | 20.73 | 2.74 | 1.32
10 | CC(C)C1CC23OC1(O)CC(CN1CCNCC1)(N1CCNCC1)C2CCC3C.Cl (centres unmarked) [Compound 42, Curcumol bispiperazine hydrochloride] | 2.15 | 14.36 | 10.16 | 3.12 | 2.73 | 3.14 | −12.5 | −1.03 | 6.86 | 0.79 | 55.64 | 54.03 | 34.21 | 30.12 | 9.99 | 1.79
11 | CC(C)C1CC23OC1(O)CC(C)(O)C2CCC3C (centres unmarked) [Compound 35, Curcumol monohydroxy compound without double bond] | 3.65 | 6.78 | 3.89 | 2.77 | 3.12 | 3.99 | 7.36 | 0.23 | 5.23 | 4.32 | 59.88 | 64.01 | 3.89 | 9.87 | 8.97 | 8.23
